From patent US20260007639A1, “COMPOUNDS FOR THE TREATMENT OF NEUROMUSCULAR DISORDERS” (NMD PHARMA A/S, priority 2017, published 2026)
Blank lines part the entries; values can stand above or below the compound they belong to.

Assays:
rat soleus muscles = experiment: Recovery of force in isolated rat soleus nerve-muscle preparations after 115 nM tubocurarine, 50 μM compound (Table 8); details: 40 mins exposure
Method: Force traces from a representative muscle stimulated to contract in 1) control condition before addition of neuromuscular blocking agent, 2) the force response to stimulation after 90 minutes incubation with Tubocurarine. […] The traces presented in FIG. 12A (1, 2, 3), correspond to the dotted lines in FIG. 12B, respectively.
Recovery of force is quantified as the percentage of the force prior to tubocurarine that is recovered by the compound.
The current invention relates to compounds that inhibit CIC-1 ion channels and increase muscle excitability and thereby improve muscle function in clinical conditions where muscle activation is failing. Such conditions result in loss of contractile function of skeletal muscle, weakness and excessive fatigue. In this series of experiments the compounds were tested for their ability to restore contractile function of isolated rat muscle when the neuromuscular transmission had been compromised akin to neuromuscular disorders.
Experimentally, soleus muscles from 4-5 wk old rats were isolated with the motor nerve remaining attached. The nerve-muscle preparations were mounted in experimental setups that enabled electrical stimulation of the motor nerve. Stimulation of the motor nerve led to activation of the muscle fibres and ensuing force production that was recorded.
After mounting the nerve-muscle preparation in the experimental setup, the contractile function of the muscle was initially assessed under the control conditions (FIG. 2A). […] The experimental condition mimics the failing neuromuscular transmission in a range of neuromuscular disorders. After addition of tubocurarine the contractile force declined over the next 90 mins to 10-50% of the control force. 50 μM of the test compound was then added and the contractile force recovered despite the continued presence of tubocurarine. To quantify the ability of the compound to restore force the percentage of the initial force that was restored was determined after 40 mins of compound exposure (FIG. 2B) and the point increase is reported in Table 8.

human CIC-1 channels = target: T1, human CIC-1 channels (Homo sapiens, UniProt P35523); experiment: Automated patch-clamp on human CIC-1 expressed in CHO cells: shift of half activation voltage ΔV1/2; type: cell-based; details: compound in intracellular solution vs control cell patches; CHO cells expressing human CIC-1
T1 construct: host or cells: CHO (Chinese hamster ovary) cells constitutively expressing human ClC-1
Method: FIGS. 13A-13B: FIG. 13A illustrates the voltage protocol used to evoke currents in whole cell patches of CHO cells expressing human CIC-1 channels.
Experiments were performed using an automated patch clamp system that allowed high throughput testing of whole cell patches together with both intracellular and extracellular addition of compound.
Automated whole cell patch clamp experiments were performed with the Qpatch 16 system (Sophion Bioscience, Ballerup, Denmark) at room temperature. Data acquisition and analysis were performed in the Qassay software (ver. 5.6, Odense).
To evoke CIC-1 currents in whole cell patches, the membrane potential was initially stepped from a holding potential of −30 mV to +60 mV for 100 ms and then to various test voltages (sweeps) ranging from +120 mV to −140 mV in steps of 20 mV for 300 ms. To obtain tail currents, the membrane potential was stepped to −100 mV after each test voltage for 300 ms and then relaxed to −30 mV for 2 sec between sweeps (FIG. 3).
I/V relationships for whole cell instant and steady state current amplitudes were obtained by plotting average current densities at the beginning and at the end of the 300 ms step against the membrane potential (FIG. 4).
In order to determine the relative overall open probability (Po), the instantaneous tail currents were normalized to the maximal tail current obtained following the most positive voltage step and plotted against the test voltage. Plots of normalized tail currents from each whole cell patch were then fitted to a Boltzmann function allowing determination of half activation voltages (V1/2, FIG. 5).
For automated patch clamp experiments extracellular solutions contained: 2 mM CaCl2), 1 mM MgCl2, 10 mM HEPES, 4 mM KCl, 145 mM NaCl, 10 mM Glucose, pH adjusted to 7.4 with NaOH (2 M). Osmolality adjusted to ˜320 using sucrose.
Intracellular solutions contained: 80 mM CsF, 60 mM CsCl, 5/1 mM KOH/EGTA, 10 mM HEPES, 10 mM NaCl, pH adjusted to 7.2 with NaOH (2 M). Osmolality adjusted to ˜320 mOsm using sucrose.
Cells used in patch clamp experiments were Chinese hamster ovary cells (CHO) constitutively expressing human CIC-1 channels. The amino acid sequence encoded by the cDNA used to create this cell line was identical to the translated sequence for GenBank accession number NM_000083.2. Cells were produced by Charles River (Catalogue CT6175, Cleveland OH, USA) in a cryopreserved format. Experiments were performed on the cells directly after thawing (3×10^6 cells used in each experiment).
To evaluate the compound effect on CIC-1, when applied directly to the intracellular side of the cell membrane, the half activation voltage, V1/2, was determined from whole cell patches with compound added to the intracellular solution and then compared to V1/2 determined from control cell patches with only vehicle added to the intracellular solution. Additionally, the effect of extracellular added compound was evaluated by determine V1/2 and steady state current amplitudes before and after exchanging the extracellular solution to contain compound.
The difference in half activation voltage of CIC-1 channels, ΔV1/2, was determined as the difference between the cell patches treated intracellularly with compound and control cells patches and is reported in Table 4 below. A positive shift in ΔV 1/2 is reflecting CIC-1 channel inhibition by the tested compound. P-values of <0.05 is considered significant.

female Lewis rats = experiment: In situ isometric hindlimb force in anaesthetised rats with neuromuscular transmission partially inhibited by Cisatracurium; type: in vivo, rat; details: 80 Hz stimulation, Cisatracurium infusion
Method: Isometric hindlimb force was measured in 12-week old female Lewis rats in the presence and absence of compound.
Rats were placed under anesthesia with isoflurane (2-4%), intubated and subsequently connected to a micro ventilator (Microvent 1, Hallowell EMC, US). Two stimulation electrodes were inserted through the skin to stimulate the sciatic nerve. A small incision was made proximal to the ankle, to expose the Achilles tendon, which was tied by cotton string, and connected to a force transducer (Fort250, World Precision Instruments) with adjustable position (Vernier control). The Achilles tendon was then cut distal to the attached cotton string. The rat was placed on a heated pad, and to prevent movement artefacts from contraction of the ankle dorsiflexors, the foot was fixated by tape on a footplate.
Muscle contractile properties were assessed by applying an electrical current (under supramaximal voltage conditions) to the nerve and recording the force generated by the muscle. The muscle was stretched until maximal force was obtained, when assessed by 2 Hz stimulation. Isometric force was measured every 30 seconds at 12 Hz (Twitch), 10 pulses, and at every 5 minutes at 80 Hz (Tetanic) for 1 second (80 pulses). This stimulation pattern was employed throughout the experiment, expect in few cases where 80 Hz stimulation was replaced by 12 Hz (10 pulses). […] When the level of neuromuscular inhibition was stable, the test article was injected i.v. at the chosen concentration. The effect of test article was assessed on its ability to increase force generated from the stimulation pattern applied. The effect was assessed in the ability to increase force per se (tetanic, 80 Hz, stimulation), and the ratio between individual twitch peaks (12 Hz stimulation). The effect was monitored for at least 1 hour after injection of test article. In addition, the time from injection of test article to maximal effect on force (both twitch and tetanic) was noted and the time for the effect to disappear (return to baseline), if possible. When appropriate the infusion of neuromuscular blocking agent was ceased, with the stimulation pattern continued, and the return of force to control levels was monitored. Animals were sacrificed by cervical dislocation while still fully sedated.

T1 sequence (P35523 whole entry): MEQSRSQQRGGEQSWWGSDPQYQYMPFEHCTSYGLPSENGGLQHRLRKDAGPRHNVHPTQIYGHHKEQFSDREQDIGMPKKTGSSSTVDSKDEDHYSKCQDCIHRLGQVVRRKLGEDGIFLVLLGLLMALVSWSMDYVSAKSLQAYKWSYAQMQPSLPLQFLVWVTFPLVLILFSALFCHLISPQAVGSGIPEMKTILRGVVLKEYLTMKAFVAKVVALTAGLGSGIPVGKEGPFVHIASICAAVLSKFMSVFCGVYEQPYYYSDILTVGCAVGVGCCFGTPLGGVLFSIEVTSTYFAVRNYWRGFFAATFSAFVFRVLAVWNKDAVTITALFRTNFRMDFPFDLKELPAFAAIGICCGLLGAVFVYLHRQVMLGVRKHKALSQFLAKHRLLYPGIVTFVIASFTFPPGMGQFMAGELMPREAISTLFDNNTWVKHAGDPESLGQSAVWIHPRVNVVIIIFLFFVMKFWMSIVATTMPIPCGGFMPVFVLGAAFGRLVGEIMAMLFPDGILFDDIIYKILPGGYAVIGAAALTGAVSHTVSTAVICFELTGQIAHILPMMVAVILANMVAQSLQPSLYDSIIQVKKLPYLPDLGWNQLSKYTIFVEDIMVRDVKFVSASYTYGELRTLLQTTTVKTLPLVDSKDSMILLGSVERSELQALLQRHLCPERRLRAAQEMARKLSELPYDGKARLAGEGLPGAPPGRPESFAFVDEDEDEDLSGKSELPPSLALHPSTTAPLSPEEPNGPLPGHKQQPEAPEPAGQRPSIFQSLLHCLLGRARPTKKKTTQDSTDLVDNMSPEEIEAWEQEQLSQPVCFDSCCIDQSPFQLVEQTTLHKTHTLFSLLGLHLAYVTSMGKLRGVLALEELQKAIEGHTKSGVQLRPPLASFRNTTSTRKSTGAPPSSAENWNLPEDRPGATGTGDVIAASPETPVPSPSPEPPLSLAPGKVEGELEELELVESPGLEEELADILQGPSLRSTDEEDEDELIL

SMILES: O=C(O)COc1ccc(Br)cc1-c1ccon1 [Compound A-64, 2-[4-bromo-2-(1,2-oxazol-3-yl)phenoxy]acetic acid]
Point increase (%) of initial force that was restored (rat soleus muscles): 25% | Δ1/2 (mV) (human CIC-1 channels): 11.3 mV | average increase in tetanic force (female Lewis rats; 44.8 mg/kg i.v.): 57.7%

SMILES: C[C@H](Oc1cc(F)c(Br)cc1-c1ccon1)C(=O)O [Compound A-44, (2S)-2-[4-bromo-5-fluoro-2-(1,2-oxazol-3-yl)phenoxy]propanoic acid]
Point increase (%) of initial force that was restored (rat soleus muscles): 27% | Δ1/2 (mV) (human CIC-1 channels): 17.7 mV | average increase in tetanic force (female Lewis rats; 24.6 mg/kg i.v.): 46.2%

SMILES: C[C@H](Oc1ccc(Cl)cc1-c1ccno1)C(=O)O [Compound A-26, (2S)-2-[4-chloro-2-(1,2-oxazol-5-yl)phenoxy]propanoic acid]
Point increase (%) of initial force that was restored (rat soleus muscles): 20% | Δ1/2 (mV) (human CIC-1 channels): 21 mV | average increase in tetanic force (female Lewis rats; 40.0 mg/kg i.v.): 33.4%

Further lines, with some results ahead:

Δ1/2 (mV) (human CIC-1 channels): 13.8 mV
SMILES: O=C(O)[C@H](CF)Oc1ccc(Br)cc1-c1ccon1 [Compound A-31, (2R)-2-[4-bromo-2-(1,2-oxazol-3-yl)phenoxy]-3-fluoropropanoic acid]
Point increase (%) of initial force that was restored (rat soleus muscles): 36% | average increase in tetanic force (female Lewis rats; 40.0 mg/kg i.v.): 34.1%

Δ1/2 (mV) (human CIC-1 channels): 7.9 mV
SMILES: C[C@H](Oc1ccc(Br)cc1-c1csnn1)C(=O)O [Compound A-59, (2S)-2-[4-bromo-2-(1,2,3-thiadiazol-4-yl)phenoxy]propanoic acid]
Point increase (%) of initial force that was restored (rat soleus muscles): 20% | average increase in tetanic force (female Lewis rats; 49.2 mg/kg i.v.): 42.8%
